These results are taken from publication PMC4102417 (PLoS Neglected Tropical Diseases, 2014).

In assay [1] the test system is T. cruzi (Tulahuen strain). The assay can be described thus: microbe, parasite or virus in culture. Type of assay: cell-based, Trypanosoma cruzi. To be noted: for activity at 10 µM / pEC50: Trypanosoma cruzi, TULAHUEN, Fibroblast; for activity at 10 µM: read-out: T. cruzi % growth @ 10 uM (Amastigotes); for pEC50: read-out: T. cruzi EC50. Here is the method:
Compounds were tested against T. cruzi (Tulahuen strain) stably expressing the beta-galactosidase gene as previously described. […] Fibroblasts were plated at a density of 2×10^3 per well in 96 well tissue culture plates. After 24 hours of incubation, 1×10^4 trypomastigotes/well were added to the fibroblasts and incubated for 4 hours before addition of the test compounds from the Spectrum Collection (10 µM final concentration). Cultures were incubated at 37°C for 5 days, then developed with chlorophenol red β-D-galactopyranoside as previously described. The percent inhibition is reported with standard deviation of the mean. […] Z-prime values were calculated for each 96-well plate based on positive (4 wells) and negative controls (4 wells).

The next assay relates to 3T3 fibroblast cells. The assay can be described thus: cells. The assay is classed as cell-based, murine. The note with it: 10 uM, Table S2; for activity at 10 µM: Mus musculus, NIH3T3, 72 h, read-out: Mammalian (3T3) cell % growth at 10 uM.

pEC50: −log10 of the molar value. Where a name gives a salt, the structure may show the parent alone. Read-outs that look alike come from different tables or passages of the source.

The term pEC50 denotes the EC50 on a negative log10 scale, so that one unit is a factor of ten. Turning to `COc1cc(NC(C)CCCN)c2ncccc2c1` (stereo not shown) [Primaquine, N-(5-aminopentan-2-yl)-6-methoxyquinolin-8-amine; bis(phosphoric acid)], the activity at 10 µM came to 4.7% in assay [1] (120 h, 10 uM, Table S2) and 91.1% in the assay with 3T3 fibroblast cells. For the same molecule, the pEC50 in assay [1] (120 h, intracellular amastigotes, 5 days, separate assays separated by semicolons) was 6.52.

Regarding `COC(=O)CCC(C)C1CCC2C3C(O)CC4CC(O)CCC4(C)C3CC(O)C12C` (stereo not shown) [CHOLIC ACID, METHYL ESTER, methyl 4-{5,9,16-trihydroxy-2,15-dimethyltetracyclo[8.7.0.0^{2,7}.0^{11,15}]heptadecan-14-yl}pentanoate], the activity at 10 µM is 22.6% in assay [1] (120 h, 10 uM, Table S2) and 81% with 3T3 fibroblast cells.

Take `OCCN1CCN(CCCN2c3ccccc3Sc3ccc(C(F)(F)F)cc32)CC1` [FLUPHENAZINE, 2-(4-{3-[2-(trifluoromethyl)-10H-phenothiazin-10-yl]propyl}piperazin-1-yl)ethan-1-ol]: the activity at 10 µM in assay [1] (120 h, 10 uM, Table S2) stood at 2.2%; in the assay with 3T3 fibroblast cells, 100%.

With `COc1ccc(Cc2nccc3cc(OC)c(OC)cc23)cc1OC` [PAPAVERINE, 1-[(3,4-dimethoxyphenyl)methyl]-6,7-dimethoxyisoquinoline hydrochloride], the activity at 10 µM in assay [1] (120 h, 10 uM, Table S2) worked out at 8.4%; in the assay with 3T3 fibroblast cells, 93.1%.

Consider `CC1(C)C(=O)C=CC2(C)C1CC(=O)C1(C)C2CCC2(C)C(c3ccoc3)OC(=O)C3OC321` (stereo not shown) [DEACETOXY-7-OXOGEDUNIN, 7-(furan-3-yl)-1,8,12,16,16-pentamethyl-3,6-dioxapentacyclo[9.8.0.0^{2,4}.0^{2,8}.0^{12,17}]nonadec-13-ene-5,15,19-trione], for which the activity at 10 µM in assay [1] (120 h, 10 uM, Table S2) amounted to 4.9%; in the assay with 3T3 fibroblast cells, 75.8%.

As for `C[C@@H]1CC[C@@]23CCC4(C)[C@@](C=CC5[C@@]6(C)CCC(=O)C(C)(C)C6CC[C@]54C)(OC2=O)C3[C@H]1C` (stereo partly shown) [3-OXOURSAN (28-13)OLIDE], the activity at 10 µM was determined as 11.1% in assay [1] (120 h, 10 uM, Table S2) and 100% in the assay with 3T3 fibroblast cells.

As for `COC(=O)CCC(C)C1CCC2C3CCC4CC(O)CCC4(C)C3CC(O)C12C` (stereo not shown) [METHYL DEOXYCHOLATE, methyl 4-{5,16-dihydroxy-2,15-dimethyltetracyclo[8.7.0.0^{2,7}.0^{11,15}]heptadecan-14-yl}pentanoate], the activity at 10 µM in assay [1] (120 h, 10 uM, Table S2) came out at 22.9%; in the assay with 3T3 fibroblast cells, 100%.

Turning to `COc1ccc(-c2oc3ccccc3c(=O)c2O)cc1OC` [3-HYDROXY-3',4'-DIMETHOXYFLAVONE], the activity at 10 µM in assay [1] (120 h, 10 uM, Table S2) came out at 5.2%; with 3T3 fibroblast cells, 99.2%.

For the molecule `O=c1c(-c2ccc(O)cc2)coc2cc(O)cc(O)c12` [GENISTEIN, 5,7-dihydroxy-3-(4-hydroxyphenyl)-4H-chromen-4-one], the activity at 10 µM in assay [1] (120 h, 10 uM, Table S2) is 6.4%; in the assay with 3T3 fibroblast cells it was 100%.

With `CC(C)c1ccc2c(c1O)CCC1C3=C(CCC21C)C(=O)OC3` (stereo not shown) [TRIPTOPHENOLIDE, 6-hydroxy-1-methyl-5-(propan-2-yl)-13-oxatetracyclo[8.7.0.0^{2,7}.0^{11,15}]heptadeca-2,4,6,11(15)-tetraen-14-one], the activity at 10 µM turned out to be 13.8% in assay [1] (120 h, 10 uM, Table S2) and 83.1% in the assay with 3T3 fibroblast cells.

As to `COc1ccc(C(=O)c2ccc(O)cc2)c(O)c1O` [2,3,4'-TRIHYDROXY-4-METHOXYBENZOPHENONE], the activity at 10 µM in assay [1] (120 h, 10 uM, Table S2) is 3.6%; with 3T3 fibroblast cells it was 86.8%.

Regarding `COc1ccc(-c2cc(=O)c3ccccc3o2)cc1` [4'-METHOXYFLAVONE, 2-(4-methoxyphenyl)-4H-chromen-4-one], the activity at 10 µM was found to be 18.7% in assay [1] (120 h, 10 uM, Table S2) and 100% in the assay on 3T3 fibroblast cells.

`C=C1C2CCC3(C)C(c4ccoc4)OC(=O)CC13OC1CC(OC(C)=O)C(C)(C)C(CC(=O)OC)C12C` (stereo not shown) [methyl 2-[5-(acetyloxy)-13-(furan-3-yl)-6,6,8,12-tetramethyl-17-methylidene-15-oxo-2,14-dioxatetracyclo[7.7.1.0^{1,12}.0^{3,8}]heptadecan-7-yl]acetate]: the activity at 10 µM is 1% in assay [1] (120 h, 10 uM, Table S2) and 84.1% in the assay on 3T3 fibroblast cells.

In the case of `CC(C)CC1C(=O)N2CCCC2C2(O)OC(NC(=O)C3C=C4c5cccc6[nH]c(Br)c(c56)CC4N(C)C3)(C(C)C)C(=O)N12` (stereo not shown) [BROMOCRIPTINE MESYLATE, 10-bromo-N-[2-hydroxy-7-(2-methylpropyl)-5,8-dioxo-4-(propan-2-yl)-3-oxa-6,9-diazatricyclo[7.3.0.0^{2,6}]dodecan-4-yl]-6-methyl-6,11-diazatetracyclo[7.6.1.0^{2,7}.0^{12,16}]hexadeca-1(15),2,9,12(16),13-pentaene-4-carboxamide; methanesulfonic acid], the activity at 10 µM in assay [1] (120 h, 10 uM, Table S2) was 2%; in the assay with 3T3 fibroblast cells, 92.1%.

With `COc1ccc2c(c1)OCC(Cc1ccc(OC)c(OC)c1)C2=O` (stereo not shown) [3-[(3,4-dimethoxyphenyl)methyl]-7-methoxy-3,4-dihydro-2H-1-benzopyran-4-one], the activity at 10 µM stood at 8.3% in assay [1] (120 h, 10 uM, Table S2) and 84.5% in the assay with 3T3 fibroblast cells.

As for `CC(=O)[C@H]1CC[C@H]2[C@@H]3CC[C@H]4C[C@@H](O)CC[C@]4(C)[C@H]3CC[C@]12C` [ALLOPREGNANOLONE, 1-[(1S,2S,5S,7S,10R,11S,14S,15S)-5-hydroxy-2,15-dimethyltetracyclo[8.7.0.0^{2,7}.0^{11,15}]heptadecan-14-yl]ethan-1-one], the activity at 10 µM was 3.7% in assay [1] (120 h, 10 uM, Table S2) and 100% with 3T3 fibroblast cells.

In the case of `CCCCCCCC/C=C/CCCCCCCCOP(=O)([O-])OCC[N+](C)(C)C` [ELAIDYLPHOSPHOCHOLINE, (9E)-octadec-9-en-1-yl [2-(trimethylazaniumyl)ethyl] phosphate], the activity at 10 µM in assay [1] (120 h, 10 uM, Table S2) stood at 5%; in the assay with 3T3 fibroblast cells, 93.7%.

As for `CC1CCC2C(C)C(=O)OC3OC4(C)CCC1C32OO4` (stereo not shown) [ARTEMISININ, 1,5,9-trimethyl-11,14,15,16-tetraoxatetracyclo[10.3.1.0^{4,13}.0^{8,13}]hexadecan-10-one], the activity at 10 µM in assay [1] (120 h, 10 uM, Table S2) was found to be 17.5%; with 3T3 fibroblast cells, 77.6%. Besides, the pEC50 in assay [1] (Table S2, amastigotes) was 5.30.

Take `CC(C)c1c(O)ccc2c1CCC1C(C)(C)CCCC21C` (stereo not shown) [TOTAROL, 4b,8,8-trimethyl-1-(propan-2-yl)-4b,5,6,7,8,8a,9,10-octahydrophenanthren-2-ol]: the activity at 10 µM in assay [1] (120 h, 10 uM, Table S2) was determined as 21.3%; in the assay on 3T3 fibroblast cells, 67.4%.

Take `O=C(/C=C(/O)c1ccccc1)c1ccccc1O` [2',beta-DIHYDROXYCHALCONE, (2E)-3-hydroxy-1-(2-hydroxyphenyl)-3-phenylprop-2-en-1-one]: the activity at 10 µM came to 10% in assay [1] (120 h, 10 uM, Table S2) and 100% in the assay with 3T3 fibroblast cells.

As for `Clc1ccc2c(c1)C(N1CCNCC1)=Nc1ccccc1O2` [AMOXAPINE, 13-chloro-10-(piperazin-1-yl)-2-oxa-9-azatricyclo[9.4.0.0^{3,8}]pentadeca-1(15),3,5,7,9,11,13-heptaene], the activity at 10 µM in assay [1] (120 h, 10 uM, Table S2) was 11.7%; with 3T3 fibroblast cells it was 98%.

For `C=CC(C)(O)CCC1C(=C)CC(O)C2C(C)(C)CCCC12C` (stereo not shown) [LARIXOL, 4-(3-hydroxy-3-methylpent-4-en-1-yl)-4a,8,8-trimethyl-3-methylidene-decahydronaphthalen-1-ol], the activity at 10 µM stood at 6.4% in assay [1] (120 h, 10 uM, Table S2) and 74% in the assay with 3T3 fibroblast cells.

As to `CCN(CCCCOC(=O)c1ccc(OC)c(OC)c1)C(C)Cc1ccc(OC)cc1` (stereo not shown) [MEBEVERINE, 4-{ethyl[1-(4-methoxyphenyl)propan-2-yl]amino}butyl 3,4-dimethoxybenzoate], the activity at 10 µM turned out to be 4.1% in assay [1] (120 h, 10 uM, Table S2) and 92.3% with 3T3 fibroblast cells.

Regarding `Oc1cc2c(cc1O)C1c3ccc(O)c(O)c3OCC1(O)C2` (stereo not shown) [HAEMATOXYLIN, 8-oxatetracyclo[8.7.0.0^{2,7}.0^{12,17}]heptadeca-2,4,6,12,14,16-hexaene-5,6,10,14,15-pentol], the activity at 10 µM worked out at 3.7% in assay [1] (120 h, 10 uM, Table S2) and 100% in the assay with 3T3 fibroblast cells.

On to `CN(C)CCCN1c2ccccc2Sc2ccc(Cl)cc21` [CHLORPROMAZINE, [3-(2-chloro-10H-phenothiazin-10-yl)propyl]dimethylamine], for which the activity at 10 µM in assay [1] (120 h, 10 uM, Table S2) is 14.2%; with 3T3 fibroblast cells it was 99.3%.

Take `Cc1cccc2c3c(ccc12)C1=C(C(=O)C3=O)C(C)CO1` (stereo not shown) [DIHYDROTANSHINONE I, 6,14-dimethyl-12-oxatetracyclo[8.7.0.0^{2,7}.0^{11,15}]heptadeca-1(10),2(7),3,5,8,11(15)-hexaene-16,17-dione]: the activity at 10 µM came out at 4.8% in assay [1] (120 h, 10 uM, Table S2) and 77.1% in the assay on 3T3 fibroblast cells.

Consider `CC(=O)O[C@@H]1CC2C(C)(C)C(=O)CC[C@]2(C)C2CC[C@]3(C)C(=CC(=O)O[C@H]3c3ccoc3)[C@@]21C` (stereo partly shown) [DIHYDRODEOXYGEDUNIN], for which the “T. cruzi % growth @ 10 uM (Amastigotes)” value in assay [1] (10 uM, Table S2) is listed as 23.4%. For the same molecule, the “Mammalian (3T3) cell % growth at 10 uM” value in the assay with 3T3 fibroblast cells is on record as 83.8%.

`COc1ccc2c(c1)[nH]c1c(C)nccc12` [HARMINE, 7-methoxy-1-methyl-9H-pyrido[3,4-b]indole]: the activity at 10 µM in assay [1] (120 h, 10 uM, Table S2) was determined as 7.5%; with 3T3 fibroblast cells, 87.2%.

Turning to `Cc1[nH]c2ccccc2c1CN(C)C` [2-METHYL GRAMINE], the activity at 10 µM worked out at 20.8% in assay [1] (120 h, 10 uM, Table S2) and 86.9% in the assay on 3T3 fibroblast cells.

As for `CC1C=CC=CC=CC=CC=CC=CC=CC(OC2OC(C)C(O)C(N)C2O)CC2OC(O)(CC(O)CC(O)C(O)CCC(O)CC(O)CC(=O)OC(C)C(C)C1O)CC(O)C2C(=O)O` (stereo not shown) [AMPHOTERICIN B, 33-[(4-amino-3,5-dihydroxy-6-methyloxan-2-yl)oxy]-1,3,5,6,9,11,17,37-octahydroxy-15,16,18-trimethyl-13-oxo-14,39-dioxabicyclo[33.3.1]nonatriaconta-19,21,23,25,27,29,31-heptaene-36-carboxylic acid], the activity at 10 µM in assay [1] (120 h, 10 uM, Table S2) stood at 20.6%; with 3T3 fibroblast cells, 89.7%. Besides, the pEC50 in assay [1] (Table S2, amastigotes) was 10.40; in assay [1] it was 7.40.
